{"source": "paper PMC8157947", "about": "“Peptidic boronic acids are potent cell-permeable inhibitors of the malaria parasite egress serine protease SUB1” (Proceedings of the National Academy of Sciences of the …, 2021)", "key": {"[1]": {"biological_target": "T1, trypsin (Bos taurus, UniProt P00760)", "T1 construct": "purchased Sigma-Aldrich T1426; host or cells: bovine pancreas", "T1 sequence (P00760 24-246)": "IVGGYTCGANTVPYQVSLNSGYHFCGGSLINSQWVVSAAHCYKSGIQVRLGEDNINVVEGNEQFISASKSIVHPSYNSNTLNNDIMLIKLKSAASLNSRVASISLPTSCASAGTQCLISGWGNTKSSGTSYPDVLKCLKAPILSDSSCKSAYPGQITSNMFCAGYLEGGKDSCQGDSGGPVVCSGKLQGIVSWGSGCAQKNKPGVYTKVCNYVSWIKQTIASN", "assay": "Trypsin inhibition assay (Boc-QAR-AMC cleavage)", "format": "biochemical, bovine", "method": "Analytical data are in accor dance with those reported in the literature12.\n(+)-Pinanediol (1- am inobenzyl)boronate h ydrochloride 9g\nA previousl y reported m ethod was used for the first step of the s ynthesis3.\nPhenylm agnesium brom ide 0.7 M (3.1 m L, 2.15 mm ol, 1.2 equiv) was added dropwise at −78°C to a solution of (+)-pinanediol dichloromethyl boronate 24 (470 m g, 1.79 mmol, 1.0 equiv) in anh ydrous dieth yl ether (10 m L). Af ter 15 m in ZnCl2 1 M (1.8 m L, 1.8 mm ol, 1.0 equiv) was slowl y added at this t em perature. T he reaction m ixture was allowed to warm up to room tem perature over 2 hours. The inorganic precipitate was filtered off and the solvents were rem oved in vacuo. The residue was dissolved in pentane, washed with water and dried over Na2SO4. Rem oval of the solvent gives a product which was forwarded to the next step without purification. […]\nAssays f or inh ib ition of tr yp s in activity (T PC K trea ted, f rom bovine pa ncreas; Sigm a-Aldrich T 1426) were based on cleavage of the fluorogenic peptide substrate Boc -QAR-AMC (Sigma- Aldrich B4153). which contains the fluorescent 7- am ino-4-m ethyl c oum arin (AMC) group. […] Cleavage of this bond results in release of AMC and i ncreased fluorescence. […]"}, "[2]": {"biological_target": "rPfSUB1 (Plasmodium falciparum, UniProt Q8I0V0)", "sequence (Q8I0V0 218-688)": "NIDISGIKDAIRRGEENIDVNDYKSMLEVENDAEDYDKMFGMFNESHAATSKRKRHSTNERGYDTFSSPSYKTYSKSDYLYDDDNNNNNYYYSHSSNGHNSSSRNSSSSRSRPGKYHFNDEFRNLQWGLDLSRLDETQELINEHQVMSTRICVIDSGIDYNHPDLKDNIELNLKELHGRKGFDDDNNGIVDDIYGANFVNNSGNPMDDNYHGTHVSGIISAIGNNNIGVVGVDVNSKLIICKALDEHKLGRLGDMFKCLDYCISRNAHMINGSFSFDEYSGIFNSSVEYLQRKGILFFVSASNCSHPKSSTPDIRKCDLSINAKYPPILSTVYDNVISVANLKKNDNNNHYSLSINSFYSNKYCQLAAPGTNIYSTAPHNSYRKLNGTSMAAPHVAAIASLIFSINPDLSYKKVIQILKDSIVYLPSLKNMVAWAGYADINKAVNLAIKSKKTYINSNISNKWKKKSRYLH", "assay": "Progress curve kinetic analysis of rPfSUB1 inhibition", "source_text": "Boronic acids form reversible covalent bonds with serine and threonine proteases ([26]). Inhibition is generally time dependent, and the covalent nature of the binding can result in relatively long target occupancy times despite the reversibility of the bond. […] To analyze the kinetic characteristics of the interaction between 3j and rPfSUB1, we used progress curve analysis to continuously monitor rPfSUB1-mediated cleavage of a fluorogenic substrate in the presence of a range of concentrations of 3j. […] Under such conditions, fit of the progress curves by nonlinear regression to Eq. 1 (see Materials and Methods) allows determination of kobs, the pseudo first-order rate constant for onset of inhibition. The kobs is effectively a composite of the on and off rates, so least linear squares regression of the calculated kobs values against inhibitor concentration allows determination of values of the pseudo first-order dissociation rate constant koff and the second-order association rate constant kon for the inhibitor-rPfSUB1 interaction, based respectively on values from the y-intercept and slope.\nProgress curves of SERA4st1F-6R12 cleavage by rPfSUB1 were acquired at seven concentrations of inhibitor compound 3j over a period of 35 min, during which fluorescence increases in the absence of inhibitor were linear. The obtained progress curves (four independent replicates) were fit using GraphPad Prism 8.0 software to the following time-dependent inhibition equation: [P] = Vs∗t + ((Vi−Vs)/kobs)∗(1−exp(−kobs∗t)).\nIn the equation, Vi is the initial velocity, Vs is the final steady-state velocity, and kobs reflects the observed pseudo first-order rate of inactivation. The obtained kobs values were plotted against compound concentration using a linear least squares fit. All statistical analysis was carried out using GraphPad Prism 8."}}, "note": "Several values for one entry are separate records, joined by “and”; a condition that tells them apart may be missing. Equal values may be shown once."}
{"smiles": "CC(=O)NC(C(=O)NC(C(=O)NCC(=O)NC(C)B(O)O)C(C)C)C1CCCC1", "note": "(stereo not drawn) [3j]", "values": [{"measurement": "effect on trypsin activity", "setting": "[1]; 10 µM", "value": "no detectable effect"}, {"measurement": "IC50", "setting": "[1]; bovine trypsin, Boc-QAR-AMC", "value": "> 10000", "unit": "nM"}, {"measurement": "Ki", "setting": "[2]", "value": 1, "unit": "nM"}, {"measurement": "t1/2^off (bound half-life)", "setting": "[2]; from koff", "value": "~31 min and ~30 min"}, {"measurement": "koff", "setting": "[2]; read-out: koff, dissociation rate constant", "value": 0.00037, "unit": "s⁻¹"}, {"measurement": "kon", "setting": "[2]; read-out: kon, second-order association rate constant", "value": 360000, "unit": "M⁻¹ s⁻¹"}]}
